In ChEMBL document CHEMBL5247581, “Design, synthesis and biological evaluation of new quinazolinone-benzopyran-indole hybrid compounds promoting osteogenesis through BMP2 upregulation” (Eur J Med Chem, 2022):
The source made the active and inactive calls. The rule behind the calls is not given here.

Experiments:
[1] = test system: Calvarial osteoblast; test: Induction of osteogenesis in mouse Osteoblast cells assessed as ALP activity at 10 nM measured for 24 to 48 hrs; assay type: functional, cell-based; details: time 24-48 hrs
[2] = test system: Calvarial osteoblast; test: Induction of osteogenesis in mouse Osteoblast cells assessed as ALP activity at 0.001 to 100 uM measured for 24 to 48 hrs; assay type: functional; details: dose 0.001-100 µM, time 24-48 hrs
[3] = test system: Calvarial osteoblast; test: Induction of osteogenesis in mouse Osteoblast cells assessed as ALP activity at 1 to 1000 pM measured for 24 to 48 hrs; assay type: functional, cell-based; details: dose 1-1000 pM, time 24-48 hrs
[4] = test system: Calvarial osteoblast; test: Induction of osteogenesis in mouse Osteoblast cells assessed as ALP activity at 100 to 1000000 pM measured for 24 to 48 hrs; assay type: functional, cell-based; details: dose 100-1e+06 pM, time 24-48 hrs
[5] = test system: Calvarial osteoblast; test: Cytotoxicity against mouse Osteoblast cells assessed as reduction in cell viability at 0.000001 to 1 uM measured for 24 to 48 hrs by MTT assay; assay type: toxicity, cell-based; details: dose lower 1e-06 µM, time lower 24 hrs, dose upper 1 µM, time upper 48 hrs
[6] = test system: Calvarial osteoblast; test: Induction of osteogenesis in mouse Osteoblast cells assessed as ALP activity at 0.001 to 100 uM measured for 24 hrs; assay type: functional, cell-based; details: dose 0.001-100 µM
[7] = test system: Calvarial osteoblast; test: Induction of osteoblast differentiation in mouse calvarial osteoblasts cells assessed as ALP activity at 1 to 10000 pM measured for 7 days; assay type: functional, cell-based; details: dose 1-10000 pM, time 7.0 day
[8] = test system: Calvarial osteoblast; test: Induction of osteogenesis in mouse Osteoblast cells assessed as ALP activity at 0.001 to 100 uM measured for 48 hrs; assay type: functional, cell-based; details: dose 0.001-100 µM
[9] = test system: Calvarial osteoblast; test: Induction of osteogenesis in mouse Osteoblast cells assessed as ALP activity at 100 pM measured for 48 hrs; assay type: functional, cell-based
[10] = test system: Calvarial osteoblast; test: Cytotoxicity against mouse Osteoblast cells assessed as reduction in cell viability at 100 uM measured for 24 to 48 hrs by MTT assay; assay type: toxicity, cell-based; details: time 24-48 hrs
[11] = test system: Calvarial osteoblast; test: Induction of osteogenesis in mouse Osteoblast cells assessed as fold increase in RUNX2 gene expression at 1 pM by qRT-PCR analysis; assay type: functional
[12] = test system: Mus musculus; test: Induction of bone formation in BALB/c mouse model assessed as bone formation rate/bone surface at 1 to 5 mg/kg by double labelling based analysis; assay type: functional, organism-based; details: dose 1-5 mg/kg
[13] = Induction of osteoblast mineralization in mouse Bone marrow cells assessed as increase in mineralized nodule formation at 100 pM replaced with media every 48 hrs for 21 days by Alizarin Red staining-based microscopic analysis; assay type: functional, Bone marrow cell; details: time 21 day
[14] = test system: Mus musculus; test: Induction of bone formation in BALB/c mouse model assessed as increase in intercortical distance at 1 mg/kg by histopathological analysis; assay type: functional, organism-based
[15] = test system: Calvarial osteoblast; test: Induction of osteoblast differentiation in mouse Osteoblast cells assessed as fold increase in BMP2 expression at 100 pM by qRT-PCR analysis; assay type: functional
[16] = test system: Calvarial osteoblast; test: Induction of osteoblast differentiation in mouse Osteoblast cells assessed as fold increase in RUNX2 expression at 100 pM by qRT-PCR analysis; assay type: functional
[17] = Upregulation of BMP2 expression in mouse Osteoblast cells assessed as fold increase in phosphorylated p38 level measured at 24 hrs by ELISA analysis; assay type: functional, Calvarial osteoblast
[18] = test system: Calvarial osteoblast; test: Induction of osteogenesis in mouse Osteoblast cells assessed as ALP activity at 100 pM measured for 24 to 48 hrs; assay type: functional, cell-based; details: time 24-48 hrs
[19] = test system: Mus musculus; test: Induction of bone formation in BALB/c mouse model assessed as mineral apposition rate at 1 to 5 mg/kg by double labelling based analysis; assay type: functional, organism-based; details: dose 1-5 mg/kg
[20] = test system: Calvarial osteoblast; test: Induction of osteogenesis in mouse Osteoblast cells assessed as ALP activity at 0.001 to 1 uM measured for 48 hrs; assay type: functional, cell-based; details: dose 0.001-1 µM
[21] = Induction of osteoblast mineralization in mouse Bone marrow cells assessed as increase in mineralized nodule formation at 10 nM replaced with media every 48 hrs for 21 days by Alizarin Red staining-based microscopic analysis; assay type: functional, Bone marrow cell; details: time 21 day
[22] = test system: Mus musculus; test: Induction of osteogenesis in BALB/c mouse assessed as increase in Col1a1 gene expression at 5 mg/kg, ip by qRT-PCR analysis; assay type: functional, organism-based
[23] = test system: Mus musculus; test: Induction of osteogenesis in BALB/c mouse assessed as increase in RUNX2 gene expression at 5 mg/kg, ip by qRT-PCR analysis; assay type: functional, organism-based
[24] = test system: Calvarial osteoblast; test: Induction of osteogenesis in mouse Osteoblast cells assessed as fold increase in BGLAP expression at 10 nM by qRT-PCR analysis; assay type: functional
[25] = test system: Mus musculus; test: Induction of bone formation in BALB/c mouse model assessed as calvarial bone formation at 1 to 5 mg/kg by double labelling based analysis; assay type: functional, organism-based; details: dose 1-5 mg/kg
[26] = test system: Mus musculus; test: Induction of osteogenesis in BALB/c mouse assessed as fold increase in BGLAP gene expression at 5 mg/kg, ip by qRT-PCR analysis; assay type: functional
[27] = test system: Mus musculus; test: Induction of osteogenesis in BALB/c mouse assessed as fold increase in Col1a1 gene expression at 5 mg/kg, ip by qRT-PCR analysis; assay type: functional
[28] = test system: Calvarial osteoblast; test: Induction of osteogenesis in mouse Osteoblast cells assessed as fold increase in ALP expression at 100 pM by qRT-PCR analysis; assay type: functional
[29] = test system: Mus musculus; test: Induction of bone formation in BALB/c mouse model assessed as mineralizing surface per bone surface at 1 to 5 mg/kg by double labelling based analysis; assay type: functional, organism-based; details: dose 1-5 mg/kg
[30] = test system: Mus musculus; test: Induction of osteogenesis in BALB/c mouse assessed as increase in BMP2 gene expression at 5 mg/kg, ip by qRT-PCR analysis; assay type: functional, organism-based
[31] = test system: Calvarial osteoblast; test: Induction of osteogenesis in mouse Osteoblast cells assessed as fold increase in BMP2 gene expression at 100 pM by qRT-PCR analysis; assay type: functional
[32] = test system: Mus musculus; test: Induction of osteogenesis in BALB/c mouse assessed as increase in BGLAP gene expression at 5 mg/kg, ip by qRT-PCR analysis; assay type: functional, organism-based
[33] = test system: Calvarial osteoblast; test: Induction of osteogenesis in mouse Osteoblast cells assessed as fold increase in mRNA expression at 1 to 10000 pM by qRT-PCR analysis; assay type: functional; details: dose 1-10000 pM
[34] = test system: Mus musculus; test: Induction of osteogenesis in BALB/c mouse assessed as fold increase in RUNX2 gene expression at 5 mg/kg, ip by qRT-PCR analysis; assay type: functional
[35] = test system: Calvarial osteoblast; test: Induction of osteogenesis in mouse Osteoblast cells assessed as fold increase in BGLAP expression at 1 to 100 pM by qRT-PCR analysis; assay type: functional; details: dose 1-100 pM
[36] = test system: Mus musculus; test: Induction of osteogenesis in BALB/c mouse assessed as fold increase in BMP2 gene expression at 5 mg/kg, ip by qRT-PCR analysis; assay type: functional
[37] = test system: Mus musculus; test: Induction of bone formation in BALB/c mouse model assessed as morphological architecture at 1 mg/kg by histopathological analysis; assay type: functional, organism-based
[38] = test system: Calvarial osteoblast; test: Induction of osteoblast differentiation in mouse calvarial osteoblasts cells assessed as ALP activity at 100 to 10000 pM measured for 7 days; assay type: functional, cell-based; details: dose 100-10000 pM, time 7.0 day
[39] = test system: Calvarial osteoblast; test: Induction of osteogenesis in mouse Osteoblast cells assessed as ALP activity at 10 nM measured for 48 hrs; assay type: functional, cell-based

CCn1c(-c2cc(C)c3c(c2)CC(C#N)=C(N)O3)nc2ccccc2c1=O
Activity [1]: inactive | Activity [2]: inactive | Activity [3]: inactive

CCn1c(C)nc2ccccc2c1=O
Activity [1]: inactive | Activity [4]: inactive | Activity [2]: 1% | Activity [3]: inactive

CCc1cc(-c2nc3ccccc3c(=O)n2C)cc2c1OC(N)=C(C#N)C2c1c(C)[nH]c2ccc(OC)cc12 (configuration not stated)
Activity [2]: 2%

Cc1cc(-c2nc3ccccc3c(=O)n2C)cc2c1OC(N)=C(C#N)C2c1c(C)[nH]c2ccccc12 (configuration not stated)
Activity [2]: inactive

COc1ccc2[nH]c(C)c(C3C(C#N)=C(N)Oc4c(C(C)C)cc(-c5nc6ccccc6c(=O)n5C)cc43)c2c1 (configuration not stated)
Activity [2]: inactive

CCCc1cc(-c2nc3ccccc3c(=O)n2C)cc2c1OC(N)=C(C#N)C2c1c(C)[nH]c2ccc(Cl)cc12 (configuration not stated)
Activity [2]: 12%

Cc1cc(-c2nc3ccccc3c(=O)n2C)cc2c1OC(N)=C(C#N)C2c1c(C)[nH]c2ccc(Cl)cc12 (configuration not stated)
Activity [5]: Non-Toxic | Activity [6]: inactive | Activity [7]: inactive | Activity [2]: 25% | Activity [8]: Active | Activity [9]: Active | Activity [10]: Toxic

CCn1c(-c2cc(C)c3c(c2)C(c2c(C)[nH]c4ccccc24)C(C#N)=C(N)O3)nc2ccccc2c1=O (configuration not stated)
fold change (FC) [11]: 2 | Activity [5]: Non-Toxic | Activity [12]: Active | Activity [13]: 30% | Activity [14]: Active | Activity [6]: inactive | fold change (FC) [15]: 2.3 | fold change (FC) [16]: 2.7 | fold change (FC) [17]: 1.5 | Activity [7]: Active | Activity [18]: Active | Activity [19]: Active | Activity [20]: Active | Activity [2]: 50% | Activity [21]: 50% | Activity [22]: Active | Activity [23]: Active | fold change (FC) [24]: 4 | Activity [25]: Active | fold change (FC) [26]: 7 | fold change (FC) [27]: 10 | fold change (FC) [28]: 3 | Activity [29]: Active | Activity [30]: Active | fold change (FC) [31]: 3 | Activity [32]: Active | Activity [8]: Active | fold change (FC) [33]: 2 | fold change (FC) [34]: 11 | fold change (FC) [35]: 2 | fold change (FC) [36]: 6 | Activity [37]: Active | Activity [10]: Toxic

CCn1c(-c2cc3c(c(C(C)(C)C)c2)OC(N)=C(C#N)C3c2c(C)[nH]c3ccccc23)nc2ccccc2c1=O (configuration not stated)
Activity [2]: 9%

CCCc1cc(-c2nc3ccccc3c(=O)n2C)cc2c1OC(N)=C(C#N)C2c1c(C)[nH]c2ccccc12 (configuration not stated)
Activity [2]: inactive

Cc1[nH]c2ccccc2c1C1C(C#N)=C(N)Oc2c1cc(-c1nc3ccccc3c(=O)[nH]1)cc2C(C)(C)C (configuration not stated)
Activity [2]: inactive

CCCc1cc(-c2nc3ccccc3c(=O)n2CC)cc2c1OC(N)=C(C#N)C2c1c(C)[nH]c2ccccc12 (configuration not stated)
Activity [2]: 12%

COc1ccc2[nH]c(C)c(C3C(C#N)=C(N)Oc4c(C)cc(-c5nc6ccccc6c(=O)n5C)cc43)c2c1 (configuration not stated)
Activity [2]: 13%

COc1ccc2[nH]c(C)c(C3C(C#N)=C(N)Oc4c3cc(-c3nc5ccccc5c(=O)[nH]3)cc4C(C)(C)C)c2c1 (configuration not stated)
Activity [2]: inactive

COc1ccc2[nH]c(C)c(C3C(C#N)=C(N)Oc4c3cc(-c3nc5ccccc5c(=O)n3C)cc4C(C)(C)C)c2c1 (configuration not stated)
Activity [5]: Non-Toxic | Activity [13]: 10% | Activity [6]: inactive | Activity [2]: 19% | Activity [21]: 20% | Activity [38]: Active | Activity [8]: Active | Activity [10]: Toxic | Activity [39]: Active

Cc1[nH]c2ccccc2c1C1C(C#N)=C(N)Oc2c(C(C)C)cc(-c3nc4ccccc4c(=O)n3C)cc21 (configuration not stated)
Activity [2]: 1%
